Source: patent US6693123B2 (University of Pittsburgh, priority 1995, dated 2004)
Counter-ions that a name gives are not always drawn.

What was measured:
[1] = molecular target: T1, Rat brain protein farnesyltransferase (Rattus norvegicus, UniProt Q02293+Q04631); assay: In vitro inhibition of protein farnesyltransferase, Amersham scintillation proximity assay with biotin-K Ras B fragment; type: biochemical; settings: Inhibition of farnesyltransferase; for inhibition at 1 µM: compound at 1 × 10^−6 M (Table 2), read-out: % inhibition at 1 × 10^−6 M; for inhibition at 10 µM: compound at 1 × 10^−5 M (Table 1)
T1 construct: The enzyme is purified according to Reiss, Y., et al., Cell, 62: 81-88 (1990), utilizing steps one through three; from tissue; host or cells: rat brain

[2] = test system: geranylgeranyltransferase I; assay: Inhibition of geranylgeranyltransferase I (glass fiber filter binding assay, H-Ras-CVLL, 3H-GGPP); type: biochemical, bovine; settings: for Activity: % inhibition at 1 × 10^−6 M: compound at 1 × 10^−6 M (Table 5); for Activity: % inhibition at 1 × 10^−7 M: compound at 1 × 10^−7 M (Table 5); for Activity: % inhibition at 1 × 10^−5 M: compound at 1 × 10^−5 M (Table 5)
From the text: The ability of the compounds of the invention to inhibit protein farnesyltransferase or protein geranylgeranyltransferase can be measured according to the method of Moores, et al., J. Biol. Chem. 266: 14603 (1991) or the method of Vogt, et al., J. Biol. Chem. 270:660-664 (1995). In addition, procedures for determination of the inhibition of farnesylation of the oncogene protein Ras are described by Goldstein, et al., J. Biol. Chem., 266:15575-15578 (1991) and by Singh in U.S. Pat. No. 5,245,061.
Additional methods for the measurement of in vitro inhibition of protein prenylation (i.e., inhibition of farnesyltransferase or geranylgeranyltransferase) are described below.
Assays are performed using the glass fiber filter binding assay procedure with either rabbit reticulocyte lysate or Frase or GGTase I fractions isolated from bovine brains using a combination of hydrophobic and DEAE column chromatography procedures. Protein substrates are purchased from Panvera Corporation (H-ras for FTase, H-ras-CVLL for GGTase I). Tritium labeled prenyl lipid substrates (FPP or GGPP) are obtained from Amersham Life Science.
^3H-geranylgeranyldiphosphate (final concentration 0.5 μM), H-Ras-CVLL (final concentration 5.0 μM) and the test compound (various final concentrations from a stock solution in 1:1 DMSO/water; final concentration DMSO <2%) were mixed in buffer (50 mM Tris-HCl (pH 7.2), 30 mM MgCl2, 20 mM KCl, 10 μM ZnCl2, 5 mM DTT, 0.01% Triton X-100) to give a final volume of 50 μL. The mixture was brought to 37° C., treated with enzyme, and incubated for 30 minutes. 1 mL of 1 M HCl/ethanol was added to stop the reaction, and the mixture was allowed to stand for 15 minutes at room temperature then diluted with 2 mL of ethanol. The reaction mixture was filtered through a 2.5 cm glass microfiber filter from Whatman and washed with four 2 mL portions of ethanol. The glass filter was transferred to a scintillation vial, and 5 mL scintillation fluid was added. The radioisotope retained on the glass fiber filter was counted to reflect the activity of the enzymes. The IC50 value was calculated by measuring the activity of the enzyme over a suitable range of inhibitor concentrations.

Row | inhibition at 1 µM [1] | Activity: % inhibition at 1 × 10^−6 M [2] | Structure (SMILES) | further results
1 | – | >50% inhibition at 1 × 10^−6 M | CC(C)C[C@H](NC(=O)c1ccc(NCc2ncc[nH]2)cc1-c1ccccc1)C(=O)O [Example 953, N-[4-(Imidazol-2-ylmethylamino)-2-phenylbenzoyl]leucine] | melting point: 156 to 160 °C
2 | – | >50% inhibition at 1 × 10^−6 M | CC(C)C[C@H](NC(=O)c1ccc(NCc2ncc[nH]2)cc1-c1cccc2ccccc12)C(=O)O [Example 966, N-[4-(Imidazol-2-ylmethylamino)-2-naphth-1-ylbenzoyl]leucine] | –
3 | – | >50% inhibition at 1 × 10^−6 M | CC(C)C[C@H](NC(=O)c1ccc(NCc2c[nH]cn2)cc1-c1ccccc1)C(=O)O [Example 967, N-[4-(Imidazol-4-ylmethylamino)-2-phenylbenzoyl]leucine] | –

Second part, the compound before the results:

Row | Structure (SMILES) | inhibition at 1 µM [1] | Activity: % inhibition at 1 × 10^−6 M [2] | further results
4 | CSCC[C@H](NC(=O)c1ccc(COc2cccnc2)cc1Oc1ccccc1)C(=O)O [Example 157, [4-(3-Pyridyloxymethylene)-2-phenoxybenzoyl]methionine] | 92% | – | melting point: 195 °C
5 | Cc1cc(C)cc(-c2cc(NCc3cnc[nH]3)ccc2C(=O)N[C@@H](CC(C)C)C(=O)O)c1 [Example 399] | > 50% | >50% inhibition at 1 × 10^−6 M | –
6 | CC(C)C[C@H](NC(=O)c1ccc(CNCc2c[nH]cn2)cc1-c1cccc2ccccc12)C(=O)O [Example 955, N-[4-(Imidazol-4-ylmethylaminomethyl)-2-naphth-1-ylbenzoyl]leucine] | – | – | inhibition at 10 µM [1]: 50%; Activity: % inhibition at 1 × 10^−7 M [2]: >50% inhibition at 1 × 10^−7 M
7 | Cc1ccccc1-c1cc(NCc2c[nH]cn2)ccc1C(=O)N[C@@H](CC(C)C)C(=O)O [Example 962, N-[4-(Imidazol-4-ylmethylamino)-2-(2-methylphenyl)benzoyl]leucine Hydrochloride] | > 50% | – | Activity: % inhibition at 1 × 10^−7 M [2]: >50% inhibition at 1 × 10^−7 M
8 | CC(C)C[C@H](NC(=O)c1ccc(OCCn2ccnc2)cc1-c1ccccc1)C(=O)O [Example 964, N-[4-(2-Imidazol-1-ylethoxy)-2-phenylbenzoyl]leucine] | > 50% | >50% inhibition at 1 × 10^−6 M | –
9 | CC(C)C[C@H](NC(=O)c1ccc(NCc2ccncc2)cc1-c1cccc2ccccc12)C(=O)O [Example 969, N-[4-(Pyrid-4-ylmethylamino)-2-naphth-1-ylbenzoyl]leucine] | – | – | Activity: % inhibition at 1 × 10^−5 M [2]: >50% inhibition at 1 × 10^−5 M
10 | O=C(N[C@@H](CC1CCCCC1)C(=O)O)c1ccc(NCc2c[nH]cn2)cc1-c1cccc2ccccc12 [Example 974, N-[4-(Imidazol-4-ylmethylamino)-2-naphth-1-ylbenzoyl]cyclohexyalanine] | – | – | inhibition at 10 µM [1]: > 50%; Activity: % inhibition at 1 × 10^−5 M [2]: >50% inhibition at 1 × 10^−5 M
